Data taken from BindingDB's records for doi:10.1021/jm0494974 (Institute, 2005).

Target: Tubulin beta-2B chain (UniProt Q6B856)
Experiment: Binding affinity against tubulin from goat brain relative to colchicine

Sequence of Tubulin beta-2B chain (Q6B856 whole entry): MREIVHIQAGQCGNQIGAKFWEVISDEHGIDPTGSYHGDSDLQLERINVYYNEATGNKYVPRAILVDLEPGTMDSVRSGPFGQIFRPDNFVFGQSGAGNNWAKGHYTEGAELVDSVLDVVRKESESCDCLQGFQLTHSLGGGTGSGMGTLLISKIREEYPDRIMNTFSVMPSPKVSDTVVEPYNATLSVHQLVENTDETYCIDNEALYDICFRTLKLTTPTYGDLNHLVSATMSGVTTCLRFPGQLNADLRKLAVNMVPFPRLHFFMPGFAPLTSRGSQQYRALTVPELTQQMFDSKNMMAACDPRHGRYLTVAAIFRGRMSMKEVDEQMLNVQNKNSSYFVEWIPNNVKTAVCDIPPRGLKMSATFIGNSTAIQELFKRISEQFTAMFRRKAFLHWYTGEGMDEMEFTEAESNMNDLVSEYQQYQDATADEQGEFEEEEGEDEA

Ki | SMILES
28 µM | COc1ccc(S(=O)(=O)Nc2cccc3cc(Cl)[nH]c23)cc1 [N-(2-Chloro-1H-indol-7-yl)-4-methoxy-benzenesulfonamide]
14 µM | COc1ccc(S(=O)(=O)Nc2cccc3cc[nH]c23)cc1 [N-(1H-Indol-7-yl)-4-methoxy-benzenesulfonamide]
7 µM | COc1ccc(S(=O)(=O)Nc2cc(Cl)cc3cc[nH]c23)cc1 [N-(5-Chloro-1H-indol-7-yl)-4-methoxy-benzenesulfonamide]
14 µM | COc1ccc(S(=O)(=O)Nc2ccc(Cl)c3cc[nH]c23)cc1 [N-(4-Chloro-1H-indol-7-yl)-4-methoxy-benzenesulfonamide]
14 µM | COc1ccc(S(=O)(=O)Nc2cccc3c(Cl)c[nH]c23)cc1 [N-(3-Chloro-1H-indol-7-yl)-4-methoxy-benzenesulfonamide]
